Test in data set [1]: not given
The source holds these as a separate data set.

Test in data set [2]: not given
The source holds these as a separate data set.

Data set [3] has as its system rat hippocampal brain slices. Nature of the data set: Neuroprotection in rat hippocampal brain slices after oxygen glucose deprivation (OGD). The class given is in vivo. The following applies: 5-min OGD; AQ by direct hippocampal injection; vitamin D in diet 0.0125 mg/kg for ~10 days; preliminary results.
The mark [4] stands for this setting: apoaequorin 10 mg daily, N=56, eight days to 30 days.

Where two headings read alike, the source gives them in different places.

Regarding apoaequorin, for the setting “56 participants, day 8 and day 30”, the “memory performance (memory screening tool)” value is “improved memory performance as early as eight days but with statistically greater improvement at day 30”. Where the note is “apoaequorin 10 mg daily, 56 participants, after 30 days”, the memory improvement result is “statistically significant improvement in memory”. For the same substance, under setting [4], the “participants with improvement in general memory” value is 57%, the “participants with improvement in remembering driving directions” value came out at 84%, the “participants with improvement in retaining information” value is reported as 51% and the “participants with improvement in word recall” value is recorded as 66%. Also, where the note is “in vivo”, the “participants discontinued the study due to an adverse event” value (from here on “participants discontinued the study due”) was “No participants discontinued the study due to an adverse event”. Further, the “participants with an increase in cognitive ability” value in data set [1] (32 patients, 90 days) was “Greater than 51%”. In data set [1] (32 patients, day 8, 30, 60-90), the “cognition (standardized cognitive battery)” value was “improved cognition as early as eight days but with statistically greater improvement at day 30, as well as 60-90”. The “participants discontinued the study due” value in data set [1] (in vivo) was “No participants discontinued the study due to an adverse event”. In data set [2] (32 patients, 90 day period, open-label), the “overall quality of sleep, energy, mood, pain, general health (change from baseline of scores)” value was “increase”. In addition, the “participants discontinued the study due” value in data set [2] (in vivo) is on record as “No participants discontinued the study due to an adverse event”. Moreover, in data set [3], the “cell death (dead and dying, blue stained cells) after OGD” value is “few er dead and dying cells”.

As to vitamin D [reference compound], the “cell death (dead and dying, blue stained cells) after OGD” value in data set [3] is given as “fewer dead or dying cells”.

For the origin of these results see patent US12005096B2, “Apoaequorin and vitamin d-containing compositions and methods of using same” (QUINCY BIOSCIENCE, LLC, priority 2016, dated 2024).
